Results on 32 compounds are retold here after patent publication US20080020014A1, “Implantable devices containing nuclear receptor ligands for the treatment of vascular and related disorders” (priority 2006, published 2008).

For one series, the system named is PPARs. The note with it: cited from earlier work.
In series [1] the test system is rat carotid arteries. To be noted: balloon-denuded rat carotid arteries; cited from earlier work.
Series [2] is described as follows: Drug-release rate of Example 3 stents in phosphate-buffered saline with 1 mass % sodium dodecyl sulfate, pH 7.4, 37° C., HPLC. The class given is physicochemical. As to the method: A drug-polymer layer comprising 17-β estradiol was applied onto a stent in the following manner. A first composition was prepared by mixing the following components: • (a) about 2.0 mass % of EVAL; and • (b) the balance, a mixture of solvents, DMAC and ethanol, in a ratio of DMAC to ethanol of about 70:30 by mass.
The first composition was applied onto the surface of a bare 13 mm TETRA stent (available from Abbott Vascular Corp.) by spraying and dried to form a primer layer. A spray coater having an EFD 7803 spray valve with 0.014 inch fan nozzle with a VALVEMATE 7040 control system (manufactured by EFD Inc. of East Providence, R.I) was used. The fan nozzel was maintained at about 60° C. with a feed pressure of about 0.2 atm (about 3 psi) and an atomization pressure of about 1.35 atm (about 20 psi). An average of about 19 micrograms (μg) per coating pass was applied and an average total of about 62 μg of the wet coating was applied.
The primer layer was baked at about 140° C. for about one hour, yielding a layer with an average total amount of solids of about 61 μg, corresponding to an average thickness on the stent of 0.65 μm. “Solids” means the amount of dry residue deposited on the stent after all volatile organic compounds (e.g., the solvent) have been removed.
A second composition was prepared by mixing the following components: • (a) about 2.0 mass % of EVAL; • (b) about 0.7 mass % 17-β estradiol; and • (c) the balance, a mixture of solvents, DMAC and ethanol, in a ratio of DMAC to ethanol of about 70:30 by mass.
The second composition was applied onto the dried primer layer to form a drug-polymer polymer layer using the same spraying technique and equipment used for the primer layer. […] of the wet coating was applied, followed by drying at about 50° C. for about 2 hours. The total amount of solids of the drug-polymer layer was about 494 μg, corresponding to an average thickness on the stent of about 5.3 μm.
A third, topcoat composition was prepared by mixing the following components: • (a) about 1.2 g of a 10 mass % solution of KYNAR-FLEX 2800 in acetone; • (b) about 1.89 g of additional acetone; • (c) about 5.94 g of cyclohexanone; and • (d) about 2.97 g of AMS FLUX REMOVER.
The topcoat composition was applied by spraying using an EFD 7803 spray valve with 0.014 inch fan nozzle to form a topcoat layer, followed by drying. The nozzle temperature was at ambient temperature with a feed pressure of about 0.2 atm (3 psi) and an atomization pressure of about 1 atm (15 psi). The dryer temperature was at ambient temperature with a dryer air pressure of about 2.7 atm (40 psi). An average of about 5 μg per coating pass was applied and an average total of about 60 μg of wet coating was applied. The topcoat layer was baked at about 50° C. for two hours, yielding a total amount of solids of about 55 μg, corresponding to a thickness of about 0.38 μm.
Three stents coated according to this example were tested for their drug-release rate. The stents were immersed in individual, stirred vessels containing a phosphate-buffered saline solution that included about 1 mass % of sodium dodecyl sulfate. […] The amount of 17-β estradiol released was determined at measured intervals of time by HPLC. […] There was an initial small burst of 17-β estradiol during the first 20 hours, after which the release rate became approximately linear. Specifically, about 18% of 17-β estradiol was released after 10 hr, 25% after 20 hr, 30% after 30 hr, 35% after 40 hr, 40% after 50 hr, 43% after 60 hr, and 45% after 70 hr.

A further series concerns atherosclerosis. The note with it: through liver X receptors (LXR); cited from earlier work.
Series [3] has as its system collagenase gene expression at AP-1 binding sites. To be noted: cited from earlier work.
In series [4] the test system is vascular smooth muscle cell. To be noted: cited from earlier work.
In series [5] the test system is rat carotid arteries. To be noted: after balloon injury to rat carotid arteries; cited from earlier work.
The subject of a further series is rabbit femoral arteries. The note with it: 28 days after angioplasty; cited from earlier work.
The conditions of series [6]: in blood; may not happen in tissue; listed as Tazarotene; cited from earlier work.
Series [7] has as its system retinoic acid receptors (RARs). To be noted: cited from earlier work.

As for “9-(R/S) hydroxyoctadecadienoic acid [9-(R/S) HODE]”, in the series on PPARs, the PPAR subtypes activated entry is on record as “γ”.

In the case of `CCCCC[C@H](O)/C=C/C=C\CCCCCCCC(=O)O` (racemic) [13-(R/S) HODE], in the series on PPARs, the PPAR subtypes activated result is on record as “γ”. Take `CCCCCCCCCCCCCCC(Br)C(=O)O` (stereo not shown) [2-bromopalmitate]: the PPAR subtypes activated result with PPARs is “α, δ”.

For `CCCCC/C=C\C/C=C\C=C\[C@H](O)C/C=C\CCCC(=O)O` [8-(R) HETE, 8-(R)-hydroxyeicosatetaenoic acid], the PPAR subtypes activated entry in the series with PPARs is “α, γ”. With `CCCCC/C=C\C/C=C\C=C\[C@@H](O)C/C=C\CCCC(=O)O` [8-(S) HETE], the PPAR subtypes activated entry in the series on PPARs is “α, γ”. Take `CCC=CCC=CCC=CC=CC(O)CC=CCCCC(=O)O` (stereo not shown) [8-HEPE, 8-hydroxyeicosapentaenoic acid]: in the series with PPARs, the PPAR subtypes activated entry is on record as “α”. In the case of `CCCCCC=CC=CC(=O)CCCCCCCC(=O)O` [9-oxo ODE, 9-oxo octadecadienoic acid], the PPAR subtypes activated entry with PPARs is given as “γ”. For `CCCCC/C=C\C[C@H](O)/C=C/C=C\C/C=C\CCCC(=O)O` [12-HETE], the PPAR subtypes activated result with PPARs is given as “α”. Consider `CCCCC[C@@H](/C=C/C=C\CCCCCCCC(=O)O)OO` [13-(S) HpODE, 13-(S) hydroperoxyoctadecadienoic acid], for which the PPAR subtypes activated result in the series with PPARs is given as “γ”. Regarding `CC1=C(/C=C/C(C)=C/C=C/C(C)=C\C(=O)O)C(C)(C)CCC1` [13-cis retinoic acid], in the series with rat carotid arteries [1], the intimal thickening result is given as “suppressed” and the vessel remodeling result was “increased”.

In the case of `CCCCCC(=O)/C=C/C=C\CCCCCCCC(=O)O` [13-oxo ODE], the PPAR subtypes activated result in the series on PPARs is “γ”.

In the case of `CCCCC[C@H](O)/C=C/C=C\C/C=C\C/C=C\CCCC(=O)O` [15-HETE], the PPAR subtypes activated result in the series on PPARs is “γ”. Regarding `CCCCC/C=C/C=C1/C(=O)C=C[C@@H]1C/C=C\CCCC(=O)O` [15d-PGJ2, 15-deoxy-Δ^12,14-PGJ2], in the series on PPARs, the PPAR subtypes activated entry was “α, δ, γ”. For `C[C@]12CC[C@@H]3c4ccc(O)cc4CC[C@H]3[C@@H]1CC[C@@H]2O` [17-β estradiol], the 17-β estradiol released entry in series [2] (after 10 hr, EVAL drug-polymer layer, KYNAR-FLEX 2800 topcoat) is “about 18%”; in series [2] (after 20 hr) it was ~25%; in series [2] (after 30 hr), ~30%; in [2] (after 40 hr), ~35%; in series [2] (after 50 hr), ~40%; in [2] (after 60 hr), ~43%. In addition, the 17-β estradiol released in series [2] (after 70 hr) is recorded as ~45%. For the compound `CCCCCC#CCC#CCC#CCC#CCCCC(=O)O` [ETYA, eicosatetraynoic acid], the PPAR subtypes activated entry in the series with PPARs is given as “α”. Turning to `CC(C)(Sc1ccc(CCN(CCCCC2CCCCC2)C(=O)NC2CCCCC2)cc1)C(=O)O` [GW-7647], the PPAR subtypes activated entry with PPARs was “α”. The “atherosclerosis and formation of microphage-forming cells” value with atherosclerosis is listed as “inhibited”. In the case of `CCCCC/C=C\C[C@@H](O)/C=C/C=C/C=C\[C@@H](O)CCCC(=O)O` [LTB4], the PPAR subtypes activated result with PPARs is “α”. In the case of `CCCCC[C@H](O)/C=C/C1=C(C/C=C\CCCC(=O)O)C(=O)CC1` [PGB2], in the series on PPARs, the PPAR subtypes activated entry was “α, δ, γ”. For `CCCCC[C@H](O)/C=C/[C@H]1C(=O)C=C[C@@H]1C/C=C\CCCC(=O)O` [PGJ2, prostaglandin J2], the PPAR subtypes activated entry in the series on PPARs is given as “α, δ, γ”. For the compound `CCC/C=C/C/C=C/C=C/C=N/NN=O` [Triacsin C], the PPAR subtypes activated result in the series on PPARs was “α”. As to `Cc1cccc(Nc2cc(Cl)nc(SCC(=O)O)n2)c1C` [WY-14643], in the series on PPARs, the PPAR subtypes activated entry is on record as “α, δ, γ”. `CC1=C(/C=C/C(C)=C/C=C/C(C)=C/C(=O)O)C(C)(C)CCC1` [all-trans retinoic acid]: the “collagenase gene expression at AP-1 binding sites” value in [3] is reported as “inhibited”. The “vascular smooth muscle cell proliferation” value in [4] is “inhibited”. In the series with rat carotid arteries [1], the intimal thickening entry is given as “suppressed” and the vessel remodeling entry is “increased”. In addition, in the series on rat carotid arteries [5], the favorable geometric remodeling result was “promoted” and the neointimal formation result was “reduced”. Take `CCCCC/C=C\C/C=C\C/C=C\C/C=C\CCCC(=O)O` [arachidonic acid]: the PPAR subtypes activated entry with PPARs is given as “α, δ, γ”. As for `CC/C=C\C/C=C\C/C=C\C/C=C\C/C=C\C/C=C\CCC(=O)O` [docahexanoic acid], in the series with PPARs, the PPAR subtypes activated result is listed as “α, δ, γ”. In the case of `CCCCC/C=C\C/C=C\CCCCCCCC(=O)O` [linoleic acid], the PPAR subtypes activated entry with PPARs is listed as “α, δ”. For the compound `CCCCCCCCCSCC(=O)O` [nonythioacetic acid], the PPAR subtypes activated result in the series with PPARs was “α”.

As for `CCCCC[C@H](O)/C=C/[C@@H]1[C@H]2C/C(=C/CCCC(=O)O)O[C@H]2C[C@H]1O` [prostacyclin (PGI2), prostacyclin], the PPAR subtypes activated result in the series with PPARs was “α, δ, γ”.

In the case of `CC1=C(/C=C/C(C)=C/C=C/C(C)=C/CO)C(C)(C)CCC1` [retinol], the “internal and external elastic lamina” value with rabbit femoral arteries was “larger”. As to `CCOC(=O)c1ccc(C#Cc2ccc3c(c2)C(C)(C)CCS3)nc1` [tazarotene], the “Pharmacokinetics: de-esterification / metabolism to tazarotenic acid” value in series [6] is on record as “rapidly metabolized to tazarotenic acid”. For the same compound, the Receptor specificity result in series [7] is reported as “specific for retinoic acid receptors (RARs)”. `CCCCCCCCCCCCCCC1(C(=O)O)CO1` (stereo not shown) [tetradecylglycidic acid]: in the series with PPARs, the PPAR subtypes activated result was “α, δ”.

Turning to `CCCCCCCCCCCCCCSCC(=O)O` [tetradecythioacetate], the PPAR subtypes activated entry in the series on PPARs is on record as “α”. For clofibrates, in the series with PPARs, the PPAR subtypes activated result is recorded as “α, δ, γ”.
